Earlier results in patent EP0424553A1, “Substituted phenoxy alkanols for treatment of contact hypersensitivity” (priority 1989, dated 1991).

Key:
rat mast cells = conditions: mediated by IgE- anti-IgE reaction
[1] = system: anaphylactic histamine release; conditions: compared with chlorphenesin

| Compound | degranulation of the rat mast cells (rat mast cells) | anaphylactic histamine release-preventive effect [1] |
| --- | --- | --- |
| O=C(O)c1cc(=O)c2c(OCC(O)COc3cccc4oc(C(=O)O)cc(=O)c34)cccc2o1 [cromolyn sodium] | inhibited | – |
| chlorphenesin succinate | – | much superior to chlorphenesin |
